Measurements from patent US9174932B2, “CaSR agonists” (AJINOMOTO CO., INC., priority 2008, dated 2015).

biological target: T1, human CaSR (Homo sapiens, UniProt P41180, E1011Q); assay: Evaluation of CaSR agonistic activity (293E cells transfected with hCaSR, Ca2+ fluorescent indicator, FLIPR); format: cell-based; conditions: 293E cells expressing human CaSR; concentration giving activation rate 50%
T1 construct: expressed in transfected cells; host or cells: 293E cells (HEK293 expressing EBNA1, ATCC CRL-10852), transient transfection of hCaSR/pcDNA3.1
T1 sequence (P41180 20-1078 E1011Q): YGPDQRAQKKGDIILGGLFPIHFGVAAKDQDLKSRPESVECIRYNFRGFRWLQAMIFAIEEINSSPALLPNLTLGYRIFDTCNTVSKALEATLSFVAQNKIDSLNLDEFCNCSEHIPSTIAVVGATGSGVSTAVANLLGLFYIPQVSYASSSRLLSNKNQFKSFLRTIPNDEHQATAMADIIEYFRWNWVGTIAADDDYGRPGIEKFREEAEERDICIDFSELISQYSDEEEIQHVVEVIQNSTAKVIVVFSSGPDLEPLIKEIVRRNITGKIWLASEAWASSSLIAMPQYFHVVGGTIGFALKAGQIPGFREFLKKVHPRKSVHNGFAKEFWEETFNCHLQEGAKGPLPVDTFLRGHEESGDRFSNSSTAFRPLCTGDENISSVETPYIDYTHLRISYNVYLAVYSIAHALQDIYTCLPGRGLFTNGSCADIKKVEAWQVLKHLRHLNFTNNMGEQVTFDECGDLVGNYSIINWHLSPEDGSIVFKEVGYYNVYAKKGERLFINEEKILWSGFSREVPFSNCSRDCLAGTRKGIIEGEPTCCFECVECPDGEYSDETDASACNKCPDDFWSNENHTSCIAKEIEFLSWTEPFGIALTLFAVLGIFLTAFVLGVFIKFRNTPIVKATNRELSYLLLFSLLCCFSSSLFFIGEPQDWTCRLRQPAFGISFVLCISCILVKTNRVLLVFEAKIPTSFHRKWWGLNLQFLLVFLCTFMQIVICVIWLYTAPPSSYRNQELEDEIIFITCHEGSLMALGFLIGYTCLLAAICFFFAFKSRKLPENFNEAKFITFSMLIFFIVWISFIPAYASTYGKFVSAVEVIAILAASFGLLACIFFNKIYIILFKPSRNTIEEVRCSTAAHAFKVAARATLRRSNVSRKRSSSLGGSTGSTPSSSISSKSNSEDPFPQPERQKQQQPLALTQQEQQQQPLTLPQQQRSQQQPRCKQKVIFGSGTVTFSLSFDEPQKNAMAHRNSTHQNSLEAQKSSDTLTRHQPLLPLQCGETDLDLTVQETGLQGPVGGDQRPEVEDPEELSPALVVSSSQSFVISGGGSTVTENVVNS
Experimental: 293E cells (HEK293 cell expressing EBNA1, ATCC No. CRL-10852) were cultured in DMEM containing 10% fetal bovine serum (Dulbecco's modified Eagle medium containing […] Glucose, by NACALAI TESQUE, INC.), in the presence of 250 μg/mL of G418. The cells were spread on a petri dish of 10 cm diameter in 1.8×10^6 cells/15 mL. After leaving them in the CO2 incubator (5% CO2, 37° C.) for 24 hours, plasmid expressing human CaSR: hCaSR/pcDNA3.1 was transfected with a transfection reagent: Mirus TransIT 293 (by Takara Bio Inc.). After leaving it in the CO2 incubator for 24 hours, the cells were collected by DMEM containing 10% fetal bovine serum and seeded on poly-D-lysine coat 384 well plate (by Falcon) in 15,000 cells/well. After leaving them in the CO2 incubator for 24 hours, the medium was removed. Then, 50 μL/well of Ca^2+ fluorescent indicator: Calcium 4 Assay Kit (by Molecular Devices) that was dissolved in an assay buffer (146 mM NaCl, 5 mM KCl, 1 mM MgSO4, 1 mg/mL Glucose, 20 mM HEPES (pH 7.2), 1.5 mM CaCl2) was added thereto, and left at 37° C. for 1 hour and at room temperature for 30 minutes to absorb the fluorescent indicator. The 384 well plate was transferred to FLIPR (by Molecular Devices). Then, 12.5 μL/well of a compound that was dissolved in a 0.1% BSA containing assay buffer was added thereto, and change in fluorescence intensity was measured for 3 minutes. Meanwhile, Compound No. 20 was purchased from Bachem.
The difference between the maximum value and the minimum value (RFU(Max−Min)) of the fluorescence intensity before and after adding a compound was automatically calculated by FLIPR. RFU(Max−Min) when adding a compound in maximum concentration was defined as 100%; and RFU(Max−Min) when adding DMSO instead of the compound in the same concentration as that of the compound was defined as 0%.

Row | Structure (SMILES) | EC50 [nM]
1 | Cc1ccc(C(=O)O)cc1NC(=O)CC[C@H](N)C(=O)O [Compound No. 29, 4-methyl-3-(L-γ-glutamylamino)benzoic acid] | 530
2 | N[C@@H](CCC(=O)Nc1cccc(C(=O)O)c1)C(=O)O [Compound No. 14, 3-(L-γ-glutamylamino)benzoic acid] | 2000
3 | Cc1c(Cl)cc(S(=O)(=O)O)cc1NC(=O)CC[C@H](N)C(=O)O [Compound No. 22, N^5-(3-chloro-2-methyl-5-sulfophenyl)-L-glutamine] | 1.4
4 | N[C@@H](CCC(=O)Nc1cc(Cl)cc(C(=O)O)c1Cl)C(=O)O [Compound No. 24, 2,5-dichloro-3-(L-γ-glutamylamino)benzoic acid] | 22
5 | Cc1c(Cl)cc(NC(=O)OC[C@H](N)C(=O)O)cc1S(=O)(=O)O [Compound No. 33, O-{[(3-chloro-4-methyll-5-sulfophenyl)amino]carbonyl}-L-serine] | 2.1
6 | N[C@@H](CCC(=O)Nc1cc(I)ccc1S(=O)(=O)O)C(=O)O [Compound No. 41, N^5-(5-iodo-2-sulfophenyl)-L-glutamine] | 2300
7 | N[C@@H](CCC(=O)Nc1cc(C(=O)O)ccc1Cl)C(=O)O [Compound No. 26, 4-chloro-3-(L-γ-glutamylamino)benzoic acid] | 160
8 | COc1c(NC(=O)CC[C@H](N)C(=O)O)cccc1C(=O)O [Compound No. 27, 2-methoxy-3-(L-γ-glutamylamino)benzoic acid] | 150
9 | N[C@@H](COC(=O)Nc1cccc(S(=O)(=O)O)c1)C(=O)O [Compound No. 13, O-{[(3-sulfophenyl)amino]carbonyl}-L-serine] | 72
10 | N[C@@H](CCC(=O)Nc1cc(Br)cc(C(=O)O)c1)C(=O)O [Compound No. 16, 3-bromo-5-(L-γ-glutamylamino)benzoic acid] | 48

Further lines, results first:

Row | EC50 [nM] | Structure (SMILES)
11 | 270 | N[C@@H](CCC(=O)Nc1ccc(Cl)c(S(=O)(=O)O)c1)C(=O)O [Compound No. 9, N^5-(4-chloro-3-sulfophenyl)-L-glutamine]
12 | 2900 | N[C@@H](CCC(=O)Nc1cc(O)cc(C(=O)O)c1)C(=O)O [Compound No. 30, 5-hydroxy-3-(L-γ-glutamylamino)benzoic acid]
13 | 400 | N[C@@H](CCC(=O)Nc1cccc([N+](=O)[O-])c1)C(=O)O [Compound No. 19, N^5-(3-nitrophenyl)-L-glutamine]
14 | 86 | N[C@@H](CCC(=O)Nc1ccc(O)c(S(=O)(=O)O)c1)C(=O)O [Compound No. 11, N^5-(4-hydroxy-3-sulfophenyl)-L-glutamine]
15 | 890 | N[C@@H](CCC(=O)Nc1cc([N+](=O)[O-])cc(S(=O)(=O)O)c1O)C(=O)O [Compound No. 23, N^5-(2-hydroxy-5-nitro-3-sulfophenyl)-L-glutamine]
16 | 1.9 | N[C@@H](COC(=O)Nc1cc(Cl)cc(S(=O)(=O)O)c1O)C(=O)O [Compound No. 34, sodium 3-{[(2S)-2-amino-2-carboxyethoxycarbonyl]amino}-5-chloro-2-hydroxybenzenesulfonate]
17 | 100 | N[C@@H](CCC(=O)Nc1cc(S(=O)(=O)O)ccc1O)C(=O)O [Compound No. 8, N^5-(2-hydroxy-5-sulfophenyl)-L-glutamine]
18 | 5.7 | Cc1c(Cl)cc(NC(=O)CC[C@H](N)C(=O)O)cc1S(=O)(=O)O [Compound No. 21, N^5-(3-chloro-4-methyl-5-sulfophenyl)-L-glutamine]
19 | 2.9 | N[C@@H](CCC(=O)Nc1cc(S(=O)(=O)O)ccc1Cl)C(=O)O [Compound No. 37, N^5-(2-chloro-5-sulfophenyl)-L-glutamine]
20 | 8.8 | N[C@@H](CCC(=O)Nc1cc(Cl)cc(C(=O)O)c1)C(=O)O [Compound No. 32, 5-chloro-3-(L-γ-glutamylamino)benzoic acid]
21 | 34 | N[C@@H](CCC(=O)Nc1cccc(C(=O)O)c1O)C(=O)O [Compound No. 15, 3-(L-γ-glutamylamino)-2-hydroxybenzoic acid]
